The values below come from patent publication US5807854A, “Pyrimidone derivatives with antifungal activity” (J. Uriah & Cia. S.A., priority 1995, dated 1998).

In assay [1] the test system is Aspergillus fumigatus. Description: In vitro activity by the agar dilution method, Aspergillus fumigatus. It is filed as cell-based. Conditions: 120 h, Kimmig's agar, 25° C., 5 days, read-out: MIC (minimal inhibitory concentration), Asp. fumigatus. As for the experimental part: (§1) In vitro activity was evaluated against C. albicans, C. krusei, and Aspergillus fumigatus by the agar dilution method. Test strains were either clinical isolates or were obtained from ATCC. Stock solutions containing 800 μg/mL were prepared by solving the test products in 50% ethanol. The culture medium used was Kimmig's agar (K. A., E. Merck) supplemented with 0.5% glycerol. Plates containing serial dilutions (80 to 0.025 gg/imL) of the test products were inoculated with 10 μL of the fungal inocula, containing 10^5 colony forming units (cfu)/mL. Plates were incubated at 25° C. during 48 h for Candida sp. and during 5 days for Apergillus fumigatus. Following incubation MICs (minimal inhibitory concentrations) were determined.
In general terms: In agar dilution, organisms are placed on agar that contains the substance at set levels.

For assay [2], the system named is C. albicans. Description: In vitro activity by the agar dilution method, C. albicans. It is filed as cell-based. Conditions: Candida albicans; Kimmig's agar, 25° C., 48 h; read-out: MIC (minimal inhibitory concentration), C. albicans. As for the experimental part:
as §1

Assay [3] relates to C. krusei. The assay can be described thus: In vitro activity by the agar dilution method, C. krusei. Conditions: Pichia kudriavzevii; Kimmig's agar, 25° C., 48 h; read-out: MIC (minimal inhibitory concentration), C. krusei. Format: cell-based. As for the experimental part:
as §1

The subject of assay [4] is Candida albicans. The assay can be described thus: In Vivo Activity (Systemic Candidiasis). Conditions: po, 576 h, male mice, i.v. infection, read-out: protection on the day where all the animals in the control group had died; for responders at 1 mg/kg: orally at 1 mg/kg at 1, 4 and 24 h after infection; for responders at 10 mg/kg: orally at 10 mg/kg (asterisk) at 1, 4 and 24 h after infection. As for the experimental part: Groups of 10 male mice were inoculated i.v. with 0.2 mL of a suspension containing (2-8)×10^7 cfu/mL of Candida albicans. Compounds were administered orally at 1 mg/kg (or at 10 mg/kg for those compounds marked with an asterisk) at times 1, 4 and 24 h after infection.

In assay [5] the test system is systemic aspergillosis. The assay can be described thus: In Vivo Activity (Systemic Aspergillosis). Further details: species or system mice. The note with it: p.o. 20 mg/kg/day, 5 days; control mortality on day 25 was 90%.

Structures are written as SMILES. Values after ≈ are worked out from the molar mass of the structure shown.

Take `C[C@@H](n1cnc2cc(-c3ccc(F)cc3)sc2c1=O)[C@](O)(Cn1cncn1)c1ccc(F)cc1F` [Example 76, (1R,2R)-3-[2-(2,4-Difluorophenyl)-2-hydroxy-1-methyl-3-(1-H-1,2,4-triazol-1-yl)propyl]-6(4-fluorophenyl)thieno[3,2-d]pyrimidin-4(3H)-one]: the MIC in assay [1] is 1.25 mg/L (≈ 2.51 µM); in assay [2], at most 0.03 mg/L; in assay [3], 0.15 mg/L (≈ 0.302 µM). Further, in assay [4], the responders at 1 mg/kg amounted to 100%.
As to `C[C@@H](n1cnc2cc(C#N)ccc2c1=O)[C@](O)(Cn1cncn1)c1ccc(F)cc1F` [Example 2, (1R,2R)-7-Cyano-3-[2-(2,4-difluorophenyl)-2-hydroxy-1-methyl-3-(1H-1,2,4-triazol-1-yl)propyl]quinazolin-4(3H)-one], the MIC in assay [1] is 1.25 mg/L (≈ 2.96 µM); in assay [2] it was at most 0.03 mg/L; in assay [3], 1.25 mg/L (≈ 2.96 µM). Also, the “protection on day 25 postinfection” value in assay [5] is 60-100%.
Regarding `C[C@@H](n1cnc2cc(Br)c(F)cc2c1=O)[C@](O)(Cn1cncn1)c1ccc(F)cc1F` [Example 75, (1R,2R)-7-Bromo-3-[2-(2,4-difluorophenyl)-2-hydroxy-1-methyl-3-(1H-1,2,4-triazol-1-yl)propyl]-6-fluoroquinazolin-4(3H)-one], the MIC in assay [1] was 2.5 mg/L (≈ 5.06 µM); in assay [2], 0.15 mg/L (≈ 0.303 µM); in assay [3], 1.25 mg/L (≈ 2.53 µM). In addition, the responders at 1 mg/kg in assay [4] is 100%.
For the compound `C[C@@H](n1cnc2cc(-c3ccc(Cl)cc3)sc2c1=O)[C@](O)(Cn1cncn1)c1ccc(F)cc1F` [Example 31, (1R,2R)-6-(4-Chlorophenyl)-3-[2-(2,4-difluorophenyl)-2-hydroxy-1-methyl-3-(1H-1,2,4-triazol-1-yl)propyl]thieno[3,2-d]pyrimidin-4(3H)-one], the MIC in assay [1] was 2.5 mg/L (≈ 4.86 µM); in assay [2], at most 0.03 mg/L; in assay [3], 0.07 mg/L (≈ 0.136 µM). In assay [5], the “protection on day 25 postinfection” value is listed as 60-100%. Further, in assay [4], the responders at 1 mg/kg came out at 100%.
Turning to `C[C@@H](n1cnc2cc(I)ccc2c1=O)[C@](O)(Cn1cncn1)c1ccc(F)cc1F` [Example 74, (1R,2R)-3-[2-(2,4-Difluorophenyl)-2-hydroxy-1-methyl-3-(1-H-1,2,4-triazol-1-yl)propyl]-7-iodoquinazolin-4(3H)-one], the MIC is 0.31 mg/L (≈ 0.592 µM) in assay [1], at most 0.03 mg/L in assay [2] and 0.31 mg/L (≈ 0.592 µM) in assay [3]. In assay [4], the responders at 1 mg/kg came out at 100%.
As to `C[C@@H](n1cnc2cc(OCC(F)(F)F)ccc2c1=O)[C@](O)(Cn1cncn1)c1ccc(F)cc1F` [Example 20, (1R,2R)-3-[2-(2,4-Difluorophenyl)-2-hydroxy-1-methyl-3-(1H-1,2,4-triazol-1-yl)propyl]-7-(2,2,2-trifluoroethoxy)quinazolin-4(3H)-one], the MIC was 10 mg/L (≈ 20.2 µM) in assay [1], 0.31 mg/L (≈ 0.626 µM) in assay [2] and 1.25 mg/L (≈ 2.52 µM) in assay [3]. The responders at 1 mg/kg in assay [4] stood at 100%.
Regarding `C[C@@H](n1cnc2cc(C(F)(F)F)ccc2c1=O)[C@](O)(Cn1cncn1)c1ccc(F)cc1F` [Example 16, (1R,2R)-3-[2-(2,4-Difluorophenyl)-2-hydroxy-1-methyl-3-(1H-1,2,4-triazol-1-yl)propyl]-7-trifluoromethylquinazolin-4(3H)-one], the results for the MIC in assay [1], in assay [2] and in assay [3] were 2.5 mg/L (≈ 5.37 µM), at most 0.03 mg/L and 0.63 mg/L (≈ 1.35 µM), respectively. In addition, the “protection on day 25 postinfection” value in assay [5] is recorded as 60-100%. Further, the responders at 1 mg/kg in assay [4] was determined as 100%.
Consider `C[C@@H](n1cnc2cc(Oc3ccc(Cl)cc3)ccc2c1=O)[C@](O)(Cn1cncn1)c1ccc(F)cc1F` [Example 39, (1R,2R)-7-(4-Chlorophenoxy)-3-[2-(2,4-difluorophenyl)-2-hydroxy-1-methyl-3-(1H-1,2,4-triazol-1-yl)propyl]quinazolin-4(3H)-one], for which the MIC is 1.25 mg/L (≈ 2.39 µM) in assay [1], at most 0.03 mg/L in assay [2] and 0.15 mg/L (≈ 0.286 µM) in assay [3]. The responders at 1 mg/kg in assay [4] turned out to be 100%.
`C[C@@H](n1cnc2ccc(Cl)cc2c1=O)[C@](O)(Cn1cncn1)c1ccc(F)cc1F` [Example 7, (1R,2R)-6-Chloro-3-[2-(2,4-difluorophenyl)-2-hydroxy-1-methyl-3-(1H-1,2,4-triazol-1-yl)propyl]quinazolin-4(3H)-one]: the MIC in assay [1] was 40 mg/L (≈ 92.6 µM); in assay [2], at most 0.03 mg/L; in assay [3], 2.5 mg/L (≈ 5.79 µM). Moreover, the responders at 1 mg/kg in assay [4] is 100%.
For the compound `C[C@@H](n1cnc2cc(-c3ccc(C#N)cc3)sc2c1=O)[C@](O)(Cn1cncn1)c1ccc(F)cc1F` [Example 32, (1R,2R)-4-[3-[2-(2,4-Difluorophenyl)-2-hydroxy-1-methyl-3-(1H-1,2,4-triazol-1-yl)propyl]-4-oxo-3,4-dihydrothieno[3,2-d]pyrimidin-6-yl]benzonitrile], the “protection on day 25 postinfection” value in assay [5] is given as 60-100%. Besides, the responders at 1 mg/kg in assay [4] is 100%.
For the compound `CONC(=N)c1ccc(-c2cc3ncn([C@H](C)[C@](O)(Cn4cncn4)c4ccc(F)cc4F)c(=O)c3s2)cc1` [Example 67, (1R,2R)-3-[2-(2,4-Difluorophenyl)-2-hydroxy-1-methyl-3-(1H-1,2,4-triazol-1-yl)propyl]-6-[4-[imino(methoxyamino)methyl]phenyl]thieno[3,2-d]pyrimidin-4(3H)-one], the MIC in assay [1] worked out at 1.25 mg/L (≈ 2.27 µM); in assay [2], 0.31 mg/L (≈ 0.562 µM); in assay [3] it was 0.63 mg/L (≈ 1.14 µM). The responders at 1 mg/kg in assay [4] was determined as 100%.
Turning to `C[C@@H](n1cnc2cc(-c3ccc(F)cc3)sc2c1=O)[C@](O)(Cn1cncn1)c1ccccc1F` [Example 81, (1R,2R)-6-(4-Fluorophenyl)-3-[2-(2-fluorophenyl)-2-hydroxy-1-methyl-3-(1H-1,2,4-triazol-1-yl)propyl]thieno[3,2-d]pyrimidin-4(3H)-one], the MIC in assay [1] is 10 mg/L (≈ 20.9 µM); in assay [2], at most 0.03 mg/L; in assay [3] it was 0.31 mg/L (≈ 0.646 µM). In addition, the responders at 1 mg/kg in assay [4] was 100%.
Take `C[C@@H](n1cnc2cc(Br)ccc2c1=O)[C@](O)(Cn1cncn1)c1ccc(F)cc1F` [Example 73, (1R,2R)-7-Bromo-3-[2-(2,4-difluorophenyl)-2-hydroxy-1-methyl-3-(1H-1,2,4-triazol-1-yl)propyl]quinazolin-4(3H)-one]: the MIC in assay [1] was 0.31 mg/L (≈ 0.651 µM); in assay [2] it was at most 0.03 mg/L; in assay [3], 0.31 mg/L (≈ 0.651 µM). Besides, the “protection on day 25 postinfection” value in assay [5] was 60-100%. Also, the responders at 10 mg/kg in assay [4] worked out at 100%.
In the case of `CSc1ccc2c(=O)n([C@H](C)[C@](O)(Cn3cncn3)c3ccc(F)cc3F)cnc2c1` [Example 50, (1R,2R)-3-[2-(2,4-Difluorophenyl)-2-hydroxy-1-methyl-3-(1H-1,2,4-triazol-1-yl)propyl]-7-(methylthio)quinazolin-4(3H)-one], the figures for the MIC in assay [1], in assay [2] and in assay [3] were 2.5 mg/L (≈ 5.64 µM), at most 0.03 mg/L and 0.31 mg/L (≈ 0.699 µM), respectively. Moreover, in assay [4], the responders at 1 mg/kg was found to be 100%.
For the compound `C[C@@H](n1cnc2cc(N(C)C)c(F)cc2c1=O)[C@](O)(Cn1cncn1)c1ccc(F)cc1F` [Example 4, (1R,2R)-3-[2-(2,4-Difluorophenyl)-2-hydroxy-1-methyl-3-(1H-1,2,4-triazol-1-yl)propyl]-7-dimethylamino-6-fluoroquinazolin-4(3H)-one], the values for the MIC in assay [1], in assay [2] and in assay [3] were 10 mg/L (≈ 21.8 µM), 0.15 mg/L (≈ 0.327 µM) and 0.63 mg/L (≈ 1.37 µM), respectively.
For the compound `C[C@@H](n1cnc2cc(Cl)ccc2c1=O)[C@](O)(Cn1cncn1)c1ccc(F)cc1F` [Example 1, (1R,2R)-7-Chloro-3-[2-(2,4-difluorophenyl)-2-hydroxy-1-methyl-3-(1H-1,2,4-triazol-1-yl)propyl]quinazolin-4(3H)-one], the MIC in assay [1] was 0.31 mg/L (≈ 0.718 µM); in assay [2], at most 0.03 mg/L; in assay [3] it was 0.63 mg/L (≈ 1.46 µM). Besides, in assay [5], the “protection on day 25 postinfection” value is given as 60-100%. In assay [4], the responders at 10 mg/kg was 100%.
Take `C[C@@H](n1cnc2cc(OCC(F)(F)C(F)F)ccc2c1=O)[C@](O)(Cn1cncn1)c1ccc(F)cc1F` [Example 17, (1R,2R)-3-[2-(2,4-Difluorophenyl)-2-hydroxy-1-methyl-3-(1H-1,2,4-triazol-1-yl)propyl]-7-(2,2,3,3-tetrafluoropropoxy)quinazolin-4(3H)-one]: the MIC in assay [1] was 20 mg/L (≈ 37.9 µM); in assay [2], at most 0.03 mg/L; in assay [3], 0.63 mg/L (≈ 1.19 µM). The responders at 1 mg/kg in assay [4] was found to be 100%.
